Laboratory results as given in patent US20240041042A1, “1-(PYRIDYL)-5-AZINYLPYRAZOLE DERIVATIVES, AND THEIR USE FOR CONTROL OF UNDESIRED PLANT GROWTH” (Bayer Aktiengesellschaft, priority 2020, published 2024).
Read-outs that look alike come from different tables or passages of the source.

Assays:
Assay type in all cases: in vivo
Lolium rigidum (LOLRI) [1] = test: Post-emergence herbicidal action against LOLRI; conditions: dosage 320 g/ha
How it was run: (§1)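 Values are percent visual activity (0% like control, 100% plants dead) after about 3 weeks in the greenhouse. Treatment: post-emergence spray at one-leaf stage, 600 l/ha spray volume, 0.5% additive, doses 320 g/ha or lower.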

[2] = tested on: Echinochloa crus-galli (ECHCG); test: Post-emergence herbicidal action against ECHCG
How it was run: as §1

[3] = tested on: Polygonum convolvulus (POLCO); test: Post-emergence herbicidal action against POLCO; conditions: dosage 320 g/ha
How it was run: as §1

[4] = tested on: Alopecurus myosuroides (ALOMY); test: Pre-emergence herbicidal action against ALOMY; conditions: 320 g/ha; scored visually after about 3 weeks; 100% = plants have died
How it was run: (§2)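 Seeds sown in pots and covered with soil; WP or EC formulations sprayed onto the soil surface at 600 l/ha water with 0.5% additive, at 320 g/ha or lower. Greenhouse growth for about 3 weeks, then visual scoring as % effect against untreated controls (100% = plants dead).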

[5] = tested on: Verconica persica (VERPE); test: Post-emergence herbicidal action against VERPE
How it was run: as §1

[6] = tested on: Matricaria inodora (MATIN); test: Pre-emergence herbicidal action against MATIN; conditions: dosage 320 g/ha
How it was run: as §2

Zea mays (ZEAMX) [7] = tested on: Zea mays (ZEAMX)
How it was run: (§3)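 Test crops were treated 2 to 3 weeks after sowing, once they reached one leaf, by spraying compound in water with 0.5% additive at 600 l/ha. Visual scoring compared them with untreated controls roughly 3 weeks on, and appendices a, b and c denote different doses.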

[8] = tested on: Triticum aestivum (TRZAS); conditions: crop plant compatibility, effect vs untreated controls
How it was run: as §3

Oryza sativa (ORYSA) [9] = conditions: crop plant compatibility
How it was run: as §3

[10] = tested on: Pharbitis purpurea (PHBPU); test: Post-emergence herbicidal action against PHBPU
How it was run: as §1

[11] = tested on: Alopecurus myosuroides (ALOMY); test: Post-emergence herbicidal action against ALOMY; conditions: visual rating about 3 weeks after treatment vs untreated controls (100% = plants have died, 0% = like control plants)
How it was run: as §1

Setaria viridis (SETVI) [12] = test: Pre-emergence herbicidal action against SETVI; conditions: dosage 320 g/ha
How it was run: as §2

Zea mays (ZEAMX) [13] = conditions: pre-emergence, 80 g/ha, crop plant compatibility, in comparison to untreated controls
How it was run: (§4)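 Crop injury rated visually in percent against untreated plants roughly 3 weeks after treatment (0% no effect, 100% plants dead). Compounds, as WP or EC with 0.5% additive in 600 l/ha water, were applied to the covering soil right after sowing; greenhouse growth. Suffixes a, b, c denote different dosages.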

[14] = tested on: Triticum aestivum (TRZAS); conditions: pre-emergence, 80 g/ha, crop plant compatibility, in comparison to untreated controls
How it was run: as §4

Oryza sativa (ORYSA) [15] = conditions: pre-emergence, 80 g/ha, crop plant compatibility, in comparison to untreated controls
How it was run: as §4

[16] = tested on: Amaranthus retroflexus (AMARE); test: Pre-emergence herbicidal action against AMARE; conditions: 320 g/ha, visual scoring after about 3 weeks vs untreated controls
How it was run: as §2

[17] = tested on: Pharbitis purpurea (PHBPU); test: Pre-emergence herbicidal action against PHBPU; conditions: dosage 320 g/ha
How it was run: as §2

[18] = tested on: Echinochloa crus-galli (ECHCG); test: Pre-emergence herbicidal action against ECHCG
How it was run: as §2

[19] = tested on: Verconica persica (VERPE); test: Pre-emergence herbicidal action against VERPE
How it was run: as §2

Viola tricolor (VIOTR) [20] = test: Post-emergence herbicidal action against VIOTR; conditions: 320 g/ha
How it was run: as §1

[21] = tested on: Amaranthus retroflexus (AMARE); test: Post-emergence herbicidal action against AMARE
How it was run: as §1

[22] = tested on: Abutilon theophrasti (ABUTH); test: Post-emergence herbicidal action against ABUTH; conditions: visual rating about 3 weeks after treatment vs untreated controls (100% = plants have died, 0% = like control plants)
How it was run: as §1

Lolium rigidum (LOLRI) [23] = test: Pre-emergence herbicidal action against LOLRI; conditions: dosage 320 g/ha
How it was run: as §2

Setaria viridis (SETVI) [24] = test: Post-emergence herbicidal action against SETVI
How it was run: as §1

Avena fatua (AVEFA) = test: Pre-emergence herbicidal action against AVEFA; conditions: 320 g/ha, visual scoring after about 3 weeks vs untreated controls
How it was run: as §2

Viola tricolor (VIOTR) [25] = test: Pre-emergence herbicidal action against VIOTR
How it was run: as §2

[26] = tested on: Digitaria sanguinalis (DIGSA); test: Pre-emergence herbicidal action against DIGSA
How it was run: as §2

[27] = tested on: Polygonum convolvulus (POLCO); test: Pre-emergence herbicidal action against POLCO
How it was run: as §2

[28] = 80 g/ha, effect in comparison to untreated controls

Structure (SMILES): Cc1cccc(-n2nc(OCC(=O)O)c(Br)c2-c2ccc(F)nc2)n1 [Example I-376]
- Post-emergence action against LOLRI in % (Lolium rigidum (LOLRI) [1]): 90%
- Post-emergence action against ECHCG in % ([2]; dosage 320 g/ha): 90%
- Post-emergence action against POLCO in % [3]: 80%
- Pre-emergence action against ALOMY [4]: 80%
- Post-emergence action against VERPE in % ([5]; 320 g/ha, VERPE): 80%
- Pre-emergence action against MATIN in % [6]: 80%
- Post-emergence action against ZEAMX in % (Zea mays (ZEAMX) [7]; crop plant compatibility, 80 g/ha, effect vs untreated controls): 10%
- Post-emergence action against TRZAS in % ([8]; 80 g/ha): 0%
- Post-emergence action against TRZAS in % ([8]; 320 g/ha): 20%
- Post-emergence action against ORYSA in % (Oryza sativa (ORYSA) [9]; [28]): 0%
- Post-emergence action against ORYSA in % (Oryza sativa (ORYSA) [9]; 320 g/ha, effect in comparison to untreated controls): 20%
- Post-emergence action against PHBPU in % ([10]; dosage 320 g/ha): 80%
- Post-emergence action against ALOMY in % ([11]; 320 g/ha): 80%
- Pre-emergence action against SETVI in % (Setaria viridis (SETVI) [12]): 100%
- Pre-emergence action against ZEAMX in % (Zea mays (ZEAMX) [13]): 10%
- Pre-emergence action against TRZAS in % [14]: 10%
- Pre-emergence action against ORYSA in % (Oryza sativa (ORYSA) [15]): 20%
- Pre-emergence action against AMARE in % [16]: 90%
- Pre-emergence action against PHBPU in % [17]: 90%
- Pre-emergence action against ECHCG in % ([18]; dosage 320 g/ha): 90%
- Pre-emergence action against VERPE in % ([19]; dosage 80 g/ha): 80%
- Pre-emergence action against VERPE in % ([19]; dosage 320 g/ha): 80%
- Post-emergence action against VIOTR in % (Viola tricolor (VIOTR) [20]): 80%
- Post-emergence action against AMARE in % ([21]; 320 g/ha, visual rating about 3 weeks after treatment): 80%
- Post-emergence action against ABUTH in % ([22]; 320 g/ha): 80%
- Pre-emergence action against LOLRI in % (Lolium rigidum (LOLRI) [23]): 90%
- Post-emergence action against SETVI in % (Setaria viridis (SETVI) [24]; dosage 320 g/ha): 80%

Structure (SMILES): O=C(COc1nn(-c2ccccn2)c(-c2ccc(F)nc2)c1Cl)NS(=O)(=O)CC(F)(F)F [Example I-119]
- Post-emergence action against ECHCG in % ([2]; dosage 80 g/ha): 80%
- Pre-emergence action against ALOMY [4]: 100%
- Post-emergence action against VERPE in % ([5]; dosage 80 g/ha): 80%
- Pre-emergence action against MATIN in % [6]: 90%
- Post-emergence action against ZEAMX in % (crop plant compatibility) (Zea mays (ZEAMX) [7]; 20 g/ha, ZEAMX, effect in comparison to untreated controls): 10%
- Post-emergence action against TRZAS in % ([8]; 20 g/ha): 20%
- Post-emergence action against ORYSA in % (Oryza sativa (ORYSA) [9]; 20 g/ha, effect vs untreated controls): 0%
- Post-emergence action against ORYSA in % (Oryza sativa (ORYSA) [9]; [28]): 10%
- Post-emergence action against PHBPU in % ([10]; dosage 80 g/ha): 80%
- Pre-emergence action against AVEFA in % (Avena fatua (AVEFA)): 80%
- Post-emergence action against ALOMY in % ([11]; 80 g/ha): 90%
- Pre-emergence action against SETVI in % (Setaria viridis (SETVI) [12]): 100%
- Pre-emergence action against TRZAS in % [14]: 20%
- Pre-emergence action against ORYSA in % (Oryza sativa (ORYSA) [15]): 10%
- Pre-emergence action against AMARE in % [16]: 100%
- Pre-emergence action against ECHCG in % ([18]; dosage 80 g/ha): 80%
- Pre-emergence action against ECHCG in % ([18]; dosage 320 g/ha): 100%
- Pre-emergence action against VIOTR in % (Viola tricolor (VIOTR) [25]; 320 g/ha, Viola tricolor): 90%
- Pre-emergence action against VIOTR in % (Viola tricolor (VIOTR) [25]; dosage 80 g/ha): 80%
- Post-emergence action against AMARE in % ([21]; 80 g/ha, visual rating about 3 weeks after treatment vs untreated controls (100% = plants have died, 0% = like control plants)): 90%
- Post-emergence action against ABUTH in % ([22]; 80 g/ha): 80%
- Pre-emergence action against DIGSA in % ([26]; 80 g/ha, visual scoring after about 3 weeks vs untreated controls): 100%
- Pre-emergence action against DIGSA in % ([26]; dosage 320 g/ha): 100%
- Pre-emergence action against LOLRI in % (Lolium rigidum (LOLRI) [23]): 100%
- Pre-emergence action against POLCO in % ([27]; dosage 80 g/ha): 80%
- Pre-emergence action against POLCO in % ([27]; dosage 320 g/ha): 90%
- Post-emergence action against SETVI in % (Setaria viridis (SETVI) [24]; dosage 80 g/ha): 80%
